Numbered stars: 1 amine (or outer) side, 2 acyl side, 3 side chain; on linkers, the order of the positions; unused ones are H or OH. Bridge positions count the residues as written; N and C are the ends. Square brackets hold non-standard residues; d marks the D form. Peptide text beside a SMILES is read from it. Adda = CO[C@@H](Cc1ccccc1)[C@@H](C)/C=C(C)/C=C/[C@H](N[*:1])[C@H](C)C(=O)[*:2]; dAsp(3S-Me) = C[C@H](C(=O)[*:3])[C@@H](N[*:1])C(=O)[*:2]; d(γGlu) = O=C(O)[C@@H](CCC(=O)[*:2])N[*:1]; NMeDha = C=C(NC)C(=O)O

One may read the EC50 as the concentration needed to bring the measured effect to its halfway point. Broadly, the IC50 is the concentration at which inhibition is half-maximal. A high value points to weaker potency in that assay.

The subject of one series is OATP1B3. The series can be described thus: Cytotoxicity against sodium butyrate-treated HEK293 cells transfected with OATP1B3 incubated for 48 hrs by absorbance based assay. The class given is toxicity, cell-based. As to conditions: human.
Series [1] can be described thus: Inhibition of PP1 (unknown origin) incubated for 2 hrs by absorbance based assay. Also on record: species or system Homo sapiens.
Series [2] can be described thus: Selectivity index, ratio of EC50 for cytotoxicity against sodium butyrate-treated HEK293 cells transfected with OATP1B1 to IC50 for inhibition of PP1 (unknown origin). The class given is cell-based.
Series [3] is described as follows: Selectivity index, ratio of EC50 for cytotoxicity against sodium butyrate-treated HEK293 cells transfected with OATP1B1 to EC50 for cytotoxicity against sodium butyrate-treated HEK293 cells transfected with OATP1B3. The class given is cell-based.
Series [4] can be described thus: Selectivity index, ratio of EC50 for cytotoxicity against sodium butyrate-treated HEK293 cells transfected with OATP1B3 to IC50 for inhibition of PP1 (unknown origin). It counts as cell-based.
A further series has as its system OATP1B1. Kind of series: Cytotoxicity against sodium butyrate-treated HEK293 cells transfected with OATP1B1 incubated for 48 hrs by absorbance based assay. The class given is toxicity, cell-based. As to conditions: human.

As to `C=C1C(=O)N[C@H](C)C(=O)N[C@@H](CC(C)C)C(=O)N[C@@H](C(=O)O)[C@H](C)C(=O)N[C@@H](CCCNC(=N)N)C(=O)N[C@@H](/C=C/C(C)=C/[C@H](C)[C@H](Cc2ccccc2)OC)[C@H](C)C(=O)N[C@@H](C(=O)O)CCC(=O)N1C` [MICROCYSTIN-LR] (R[Adda][d(γGlu)][NMeDha][dA]L[dAsp(3S-Me)]-OH; lactam N-7), the EC50 at 48 h in the series on OATP1B3 worked out at 9.3 nM; in the series on OATP1B1 it was 8.8 nM. Besides, the midpoint of inhibition in series [1], the IC50, lay at 5.5 nM. The Ratio worked out at 1.6 in series [2] and 1.7 in series [4]. The Ratio EC50 in series [3] stood at 1.

Values taken from ChEMBL document CHEMBL6120976, “Derivatization of Microcystins Can Increase Target Inhibition while Reducing Cellular Uptake” (J Nat Prod, 2025).
